Test results from patent publication US20160361314A1, “COMBINATION OF AN ALK INHIBITOR AND A CDK INHIBITOR FOR THE TREATMENT OF CELL PROLIFERATIVE DISEASES” (NOVARTIS AG, priority 2013, published 2016).

Assays:
Experiment in all cases: Loewe additivity (CHALICE) synergy screen, CellTiter-Glo viability, 7x7 dose matrix
Format in all cases: cell-based
[1] = tested on: NGP human neuroblastoma cells; set-up: key to Synergy score (Mean): Loewe excess-inhibition synergy score; >0 synergistic, >2 strong; key to Max Combo Effect: growth inhibition scale; 100 = stasis; details: NGP (WT)
Procedure: The synergistic interaction of drug combinations were assessed based on the Loewe Additivity Model using Chalice software [CombinatoRx, Cambridge Mass.]). […] The software compares the response (% inhibition or % reduction of cell viability) of drug treatment from a combination of two agents to the response of the agents acting alone, against the drug-with-itself dose-additive reference model (the Loewe Additivity Model). Deviations from dose additives can be assessed numerically with a “synergy score” which quantifies the overall strength of combination effect. A synergy score >0 indicates a synergistic combination. In order to ensure only strongly synergistic combinations were selected, the acceptance criteria were set at a higher level. Strongly synergistic combinations were defined as having both a synergy score >2, a synergy score that is twice as large as the background (non-synergy) model would predict, and a maximum efficacy of >100, a value equivalent to stasis, as determined from the growth inhibition calculation.
(§1) After treatment, cell viabilty (quantity of viable cells) for each test mixtures were determined by the CellTiter-Glo® (CTG) luminescent cell viability assay (Promega) described in the Assay section, infra. […] The response to treatment (% reduction of cell viability) was analyzed using Chalice software [CombinatoRx, Cambridge Mass.]). Data evaluation and graph generation were performed using Microsoft Excel software and Chalice software.
(§2) Cell viability were determined by measuring cellular ATP content using the CellTiter-Glo® (CTG) luminescent cell viability assay (Promega). […] Reduced and enhanced luminescent signal values (responses) were calculated relative to untreated (control) cells, and the calculated signal value proportional to the cell viability.
(§3) Synergistic combinations were identified based on the Loewe Addivity Model. To measure the effects of drug combinations on the cell viability, cells from the 20 cell lines listed in Table 1 above were seeded into 1536-well assay plates at a density 300 cells per well in a 7 μL final volume and incubated at 37° C. overnight in a GNF Systems incubator with 95% RH and 5% CO2.
(§4) Approximately 18 hours after plating, compound combinations were generated on the fly by transferring 7.5 nL of compound from the pre-diluted source plates using the Labcyte ECHO555 integrated onto the ACP-1 system with replicate plates per cell line; the final DMSO concentration per well was 0.2%. It is noted that the total volume in the wells was 7 μL.
(§5) The well at the intersection of the first column and first row which received no compound was dosed with 2×7.5 nL of DMSO and served as control.
Following compound addition, the plates were returned to the incubator for 120 hours. The effects of the combinations on cellular viability were assessed with the addition of Cell Titer Glo (Promega G7573) using one of the GNF Bottle Valve dispensers on the ACP-1 system; plates were then incubated at room temperature for ten minutes and read on the integrated Perkin Elmer Viewlux (2 second exposure, 2×bin, high sensitivity). The raw data was normalized using the DMSO-treated cell control well within each plate.
All synergy calculations were performed using CHALICE software from Zalicus. […] Potential synergistic interactions between compound combinations were assessed using the Excess Inhibition 2D matrix according to the Loewe Additivity Model and are reported as synergy score.
Compounds were combined with themselves to determine the effect of assay noise on the synergy assessment parameters of the expected dose-additive interaction. Synergistic combination hits (strongly synergistic) were identified as having both a synergy score >2, a synergy score that is twice as large as the background model (non-synergy) would predict, and a maximum efficacy of >100, a value equivalent to stasis, as determined from the growth inhibition calculation.

[2] = tested on: NB-1 human neuroblastoma cells; set-up: key to Max Combo Effect: growth inhibition scale; 100 = stasis; details: for Max Combo Effect: in % (unit assumed)
Procedure: (§6) The synergistic interaction of drug combinations were assessed based on the Loewe Additivity Model using Chalice software [CombinatoRx, Cambridge Mass.]). […] 27:659-66. The software compares the response (% inhibition or % reduction of cell viability) of drug treatment from a combination of two agents to the response of the agents acting alone, against the drug-with-itself dose-additive reference model (the Loewe Additivity Model). Deviations from dose additives can be assessed numerically with a “synergy score” which quantifies the overall strength of combination effect. A synergy score >0 indicates a synergistic combination. In order to ensure only strongly synergistic combinations were selected, the acceptance criteria were set at a higher level. Strongly synergistic combinations were defined as having both a synergy score >2, a synergy score that is twice as large as the background (non-synergy) model would predict, and a maximum efficacy of >100, a value equivalent to stasis, as determined from the growth inhibition calculation.
as §1
(§7) The combinations were tested in duplicate using a 7×7 dose matrix block in 1536 well format with a cell proliferation readout as described in the Assay section infra.
(§8) All synergy calculations were performed using CHALICE software package from Zalicus and potential synergistic interactions between compound combinations were assessed using the Excess Inhibition 2D matrix according to the Loewe additivity model and were reported as synergy score (Table 10) (Lehar et al). Strongly synergistic combination were identified as having both (1) a synergy score greater than 2, a synergy score that is twice as large as the background (non-synergy) model would predict, and (2) a maximum efficacy of >100, a value roughly equivalent to stasis, as determined from the growth inhibition calculation.
as §2, §3
(§9) A six-point dose response curve for the test compounds were prepared in a 384 well ECHO compatible source plate (Labcyte P-05525) with 3-fold serial dilution series. For example, for a six-point dose response curve and a top compound concentration of 5 mM, the concentration of the compounds in the source well were 5 mM, 1.67 mM, 0.56 mM, 0.19 mM, 0.06 mM and 0.02 mM.
as §4, §5

[3] = tested on: SK-N-FI human neuroblastoma cells; set-up: key to Max Combo Effect: growth inhibition scale; 100 = stasis; details: SK-N-FI (WT); for Max Combo Effect: in % (unit assumed)
Procedure: as §6, §1, §7, §8, §2, §3, §9, §4, §5

[4] = tested on: NB-SD human neuroblastoma cells; set-up: key to Max Combo Effect: growth inhibition scale; 100 = stasis; details: NB-SD (F1174L); for Max Combo Effect: in % (unit assumed)
Procedure: as §6, §1, §7, §8, §2, §3, §9, §4, §5

[5] = tested on: LAN-1 human neuroblastoma cells; set-up: key to Synergy score (Mean): Loewe excess inhibition synergy score; >0 synergistic; key to Max Combo Effect: growth inhibition scale; 100 = stasis; details: LAN-1 (F1174L)
Procedure: as §6, §1
The % inhibition (reduction in cell viability) by the drug treatments were recorded in the block In the dose matrix (left); the single agent treatment at the far left column and the bottom row, and the combinations in the remaining 6x6 combination blocks. The differences between the data in the dose matrix and the expected inhibition value generated by the Loewe model were reported in the Loewe Excess matrix. In this Excess Inhibition matrix, synergy is defined as values>0; that is inhibition greater than what would be expected from a simple additive interaction. Antagonism is defined as values<0; that is inhibition […] than what would be expected from a simple additive interaction. The synergy score for the drug treatments were computed taken into account of the entire 6×6 combination blocks within the matrix.
as §7, §8, §2
Synergistic combinations were identified based on the Loewe Addivity Model.

SMILES	Max Combo Effect ([1]; Table 3)	Synergy score (Mean) ([1]; Table 3)	Synergy score (Mean) ([2]; NB-1 (WT_Amp), Table 3)	Max Combo Effect ([2]; NB-1 (WT_Amp), Table 3)	Synergy score (Mean) ([3]; Table 3)	Max Combo Effect ([3]; Table 3)	Synergy score (Mean) ([4]; Table 3)	Max Combo Effect ([4]; Table 3)	Max Combo Effect ([1]; Table 2)	Synergy score (Mean) ([1]; Table 2)	Synergy score (Mean) ([2]; NB-1 (WT Amp), Table 2)	Max Combo Effect ([2]; NB-1 (WT Amp), Table 2)	Synergy score (Mean) ([3]; Table 2)	Max Combo Effect ([3]; Table 2)	Synergy score (Mean) ([4]; Table 2)	Max Combo Effect ([4]; Table 2)	Max Combo Effect ([5]; Table 2)	Max Combo Effect ([5]; Table 3)	Synergy score (Mean) ([5]; Table 3)	further results
Cc1cc(Nc2nc(Nc3ccccc3S(=O)(=O)C(C)C)c3cn[nH]c3n2)c(OC(C)C)cc1C1CCN(C)CC1 [Compound A2, N6-(2-isopropoxy-5-methyl-4-(1-methylpiperidin-4-yl)phenyl)-N4-(2-(isopropylsulfonyl)phenyl)-1H-pyrazolo[3,4-d]pyrimidine-4,6-diamine]	184.04	0.84	identified as synergistic	193.34	0.65	161.68	1.38	195.92	–	–	–	–	–	–	–	–	–	–	–	Synergy score (Mean) ([2]; NB-1 (WT_Amp), Table 3, listed as Cmpd A2 Self Cross): 2.97
Cc1cc(Nc2ncc(Cl)c(Nc3ccccc3S(=O)(=O)C(C)C)n2)c(OC(C)C)cc1C1CCNCC1 [Compound A1, 5-chloro-N2-(2-isopropoxy-5-methyl-4-(piperidin-4-yl)phenyl)-N4-[2-(propane-2-sulfonyl)-phenyl]-pyrimidine-2,4-diamine]	–	–	–	–	–	–	–	–	104.1	0.822	1.607	181.9	1.135	59.7	0.908	141.5	114.2	–	–	Synergy score (Mean) ([5]; Table 2, listed as Cmpd A1 Self Cross): 1.011; Synergy score (Mean) ([5]; Table 2, listed as Cpd A1×A1): 1.01
C[C@@H](Oc1cc(-c2cnn(C3CCNCC3)c2)cnc1N)c1c(Cl)ccc(F)c1Cl [Compound A3, (R)-3-(1-(2,6-dichloro-3-fluorophenyl)ethoxy)-5-(1-(piperidin-4-yl)-1H-pyrazol-4-yl)pyridin-2-amine, reference compound]	11.39	0.01	–	–	–	20.37	0.84	75.54	–	–	–	–	–	–	–	–	–	77.73	0.63	–
CN(C)C(=O)c1cc2cnc(Nc3ccc(N4CCNCC4)cn3)nc2n1C1CCCC1 [Compound B, 7-cyclopentyl-N,N-dimethyl-2-((5-(piperazin-1-yl)pyridin-2-yl)amino)-7H-pyrrolo[2,3-d]pyrimidine-6-carboxamide]	17.0	0.01	0.34	40.57	0.21	51.2	0.97	61.5	31.2	0.084	1.429	111.0	0.435	60.3	1.476	98.6	142.3	62.78	0.25	–
